Test results reported in paper PMC10610505, “Synthesis and Biological Evaluation of Some New 3-Aryl-2-thioxo-2,3-dihydroquinazolin-4(1H)-ones and 3-Aryl-2-(benzylthio)quinazolin-4(3H)-ones as Antioxidants; COX-2, LDHA, α-Glucosidase and α-Amylase Inhibitors; and Anti-Colon Carcinoma and Apoptosis-Inducing Agents” (Pharmaceuticals, 2023).

Columns and labels:
Format in all cases: cell-based, human
Bax gene = assay: qRT-PCR expressional level of Bax gene; details: 10 µg/mL, HCT-116 and LoVo cells, vs negative control
Description: Considering these facts, enhancing apoptosis has been extensively studied as a potential drug target in cancer therapy, therefore, in this study, we investigated the effects of the most cytotoxic compounds, 3a and 3f, (at 10 µg/mL, 24 h incubation) on the expressional levels of these apoptotic regulator genes (Bax and Bcl-2) using quantitative reverse transcription–polymerase chain reactions (qRT-PCR).
Briefly, in a 25 mL flask (1 × 10^6 cells/flask), the human colon cancer cell lines (HCT-116 and LoVo) were grown for 24 h. After replacing the culture media with a medium containing 1% FBS for 24 h, the cells were treated with 10 µg/mL of each tested compound in 2 mL of fresh medium containing 1% FBS, or 0.25% DMSO, which was used as the negative control. The cells were adherent cells and they were detached using trypsin after being washed with ice-cold phosphate-buffered saline (PBS).
Primers specific for the Bax, Bcl-2 and Caspase-3 genes were designed using the primer blast (https://www.ncbi.nlm.nih.gov/tools/primer-blast/ accessed on 9 January 2023) software. The primers were used in the RT-qPCR analysis to amplify fragments of 100–200 bp in length (Table 11).
The RNeasy Mini Kit (Qiagen, Hilden, Germany) was used to extract the total RNA. The RNA purity, quality and quantity were checked using a Nanodrop 8000 spectrophotometer (Thermo Fisher Scientific, USA). […]

caspase-9 = assay: Western blot of caspase-9 in cell lysates; details: 50 µg/mL, 48 h
Description: (§1) Furthermore, in order to confirm the implication of these compounds in the apoptotic pathways trigged by caspases, the proteins levels of caspases 8 and 9 were evaluated using Western blot analysis for the HCT-116 and LoVo carcinoma cells lysates after treatment with compounds 3a and 3f (50 µg/mL for 48 h); the untreated cells were used as a negative control.
(§2) In order to determine the levels of production of caspases 8 and 9 by the treated carcinoma cells, Western blot analysis was carried out using a FLAG® Western Detection Kit (Agilent Technologies, USA). Exponentially growing HCT-116 and LoVo cells were treated with 50 µg/mL of derivatives 3a and 3f for 48 h. After incubation, the cells were harvested and lysed using a Lysis buffer consisting of 10 mM of Tris, 100 mM of NaCl, 25 mM of ethylenediaminetetra aceticacid (EDTA), 25 mM of Ethylene glycol bis(2-aminoethyl)tetraacetic acid (EGTA), 0.1% Sodium dodecyl sulfate (SDS), 1% (v/v) Triton X-100 and 2% (v/v) NP-40 (pH 7.4), with a 1:200 protease inhibitor cocktail (Sigma-Adrich) and a 1:300 phosphatase inhibitor cocktail tablet (Roche Applied Science, Mannheim, Germany). The protein concentrations of each sample were determined calorimetrically using the Bradford method before proceeding to carry out the Western blotting. Equal amounts (20 µg) of the protein samples were mixed and boiled with SDS Loading buffer for 10 min, allowed to cool on ice and then loaded into SDS-polyacrylamide gel and separated using a Cleaver electrophoresis unit (Cleaver, Warwickshire, UK), before being transferred onto polyvinylidene fluoride (PVDF) membranes (Bio-Rad, USA) for 30 min using a Semi-dry Electroblotter (Biorad, USA) at 2.5 A and 25 V for 30 min. The membrane was blocked with 5% nonfat dry milk in TBS-T for two hours at room temperature, in order to reduce non-specific protein interactions between the membrane and the antibody. The blocked membrane was incubated overnight at 4 °C with primary antibodies (Cell Signaling Technology, Massachusetts, USA) and β-actin (Sigma). […] Briefly, the membranes were incubated for 1 min with a mixture of equal volumes of ECL solution A and ECL solution B. The chemiluminescent signals were captured using a CCD camera-based imager (Chemi Doc imager, Biorad, USA), and the bands’ intensities were then measured using ImageLab v3.0 (Bio-Rad). […] The proteins were detected using an enhanced chemiluminescence (ECL) detection system (Thermo Fischer Scientific, USA). The intensities of the bands were quantified using the NIH ImageJ software v3.0.1 (http://rsb.info.nih.gov/ij/).

caspase-8 = assay: Western blot of caspase-8 in cell lysates; details: 50 µg/mL, 48 h
Description: as §1, §2

For O=c1c2cc(Cl)ccc2[nH]c(=S)n1-c1cccc(C(F)(F)F)c1 [Compound 3a, 6-Chloro-2-thioxo-3-(3-trifluoromethyl-phenyl)-2,3-dihydro-1H-quinazolin-4-one], the “Expression level of Bax gene” value (Bax gene) was “upregulate”, the “Increase in expression level of caspase-9” value (shortened to “Increase in expression level”) (caspase-9; lysates of HCT-116) was 3.6 times and the “Increase in expression level” value (caspase-9; lysates of LoVo) was 7.2 times. For the same molecule, the “Increase in expressional level of caspase 8” value (from here on “Increase in expressional level”) (caspase-8; lysates of HCT-116) was 2.3 times and the “Increase in expressional level” value (caspase-8; lysates of LoVo) was 5.1 times.

In the case of O=c1c2cc(Cl)ccc2[nH]c(=S)n1-c1ccc([N+](=O)[O-])cc1 [Compound 3f, 6-Chloro-3-(4-nitro-phenyl)-2-thioxo-2,3-dihydro-1H-quinazolin-4-one], the “Expression level of Bax gene” value (Bax gene) is reported as “upregulate”, the “Increase in expression level” value (caspase-9; lysates of HCT-116) is reported as 3.1 times and the “Increase in expression level” value (caspase-9; lysates of LoVo) is reported as 4.8 times. The “Increase in expressional level” value (caspase-8; lysates of HCT-116) was 2.2 times and the “Increase in expressional level” value (caspase-8; lysates of LoVo) was 4.1 times.
